Test results reported in patent publication US6545152B1, “R-isomers of nonnucleoside inhibitors” (Parker Hughes Institute, priority 2000, dated 2003).
Values joined by “and” are separate entries in the source; they are usually repeats but may differ in a detail not shown here. Equal entries are not always repeated. Where two headings read alike, the source gives them in different places.

Tests used:
[1] = test system: multidrug resistant HIV-1 strain RT-MDR (V106A, 74V, 41L, 215Y); test: microbe, parasite or virus in culture; type: cell-based
[2] = test system: HIV-1 strain HTLVIIIB; test: p24 antigen assay of HIV-1 replication in human PBMC; type: cell-based; conditions: read-out: IC50 HTLVIIIB
Description: The HIV-1 strain HTLVIIIB (kindly provided by Dr. Neal T. Wetherall, VIROMED Laboratories, Inc.), was propagated in CCRF-CEM cells, and used in in vitro assays of the anti-HIV-1 activity of the synthesized compounds of the invention. Cell-free supernatants of HTLVIIIB-infected CCRF-CEM cells were harvested, dispensed into 1 ml aliquots, and frozen at −70° C.
The incubated cells were then exposed to HIV-1 at a multiplicity of infection (MOI) of 0.1 during a one-hour adsorption period at 37° C. in a humidified 5% CO2 atmosphere. Subsequently, infected cells were cultured in 96-well microtiter plates (100 μl/well; 2×10^6 cells/ml) in the presence of test compounds, including appropriate controls. Aliquots of culture supernatants were removed from the wells on the seventh day after infection for p24 antigen assays. […] Ag.
(§1) The applied p24 enzyme immunoassay (EIA) was the unmodified kinetic assay commercially available from Coulter Corporation/Immunotech, Inc. (Westbrooke, Me.). In the assay, a murine monoclonal antibody against HIV core protein is coated onto microwell strips. Antigen (HIV core protein) present in the test culture supernatant samples binds the antibody and the bound antibody-antigen complex is quantitated. Percent viral inhibition was calculated by comparing the p24 values from the test substance-treated infected cells with p24 values from untreated infected cells (i.e., virus controls).

[3] = test system: NNI-resistant HIV-1 strain A17 (Y181C); test: microbe, parasite or virus in culture; type: cell-based
Description: (§2) Normal human peripheral blood mononuclear cells (PBMNC) from HIV-negative donors were cultured 72 hours in RPMI 1640 supplemented with 20%(v/v) heat-inactivated fetal bovine serum (FBS), 3% interleukin-2, 2 mM L-glutamine, 25 mM HEPES, 2 g/L NaHCO3, 50 μg/ml gentamicin, and 4 μg/ml phytohemagglutinin prior to exposure to HIV-1. The incubated cells were then exposed to HIV-1 at a multiplicity of infection (MOI) of 0.1 during a one-hour adsorption period at 37° C. in a humidified 5% CO2 atmosphere. Subsequently, infected cells were cultured in 96-well microtiter plates (100 μl/well; 2×10^6 cells/ml) in the presence of test compounds, including appropriate controls. Aliquots of culture supernatants were removed from the wells on the seventh day after infection for p24 antigen assays. The methods used in the P24 assay were as previously described in Uckun, et al., Antimicrobial Agents and Chemotherapy, 1998, 42, 383; Zarling, et al., Nature, 1990, 347, 92-95; Erice, et al., Antimicrob. Ag. Chemother., 1993, 37, 835.
as §1

[4] = test system: HIV-1 strain A17 variant (Y181C plus K103N); test: microbe, parasite or virus in culture; type: cell-based
Description: as §2, §1

[5] = biological target: T1, recombinant HIV-1 reverse transcriptase (rRT) (Human immunodeficiency virus type 1 group M subtype B, UniProt P04585); test: Cell-free RT inhibition assay (Quan-T-RT, scintillation proximity); type: biochemical
T1 construct: recombinant HIV-1 reverse transcriptase (rRT)
Description: In addition, the activity of the test compounds to inhibit recombinant HIV-1 reverse transcriptase (rRT) activity was determined using the Quan-T-RT assay system (Amersham, Arlington Heights, Ill.), which utilizes the scintillation proximity assay principle. […] Data for both bioassays is reported as IC50 values.

[6] = Human immunodeficiency virus 1, H9, read-out: IC50 RT-MDR
[7] = Human immunodeficiency virus 1, PBMC, human PBMC, p24
[8] = Human immunodeficiency virus 1, read-out: IC50 A17
[9] = Human immunodeficiency virus 1, 168 h, read-out: IC50 A17 (second column; A17 variant)
[10] = Human immunodeficiency virus 1, read-out: IC50 A17 (second column; A17 variant)

CC(C)Nc1cccnc1N1CCN(C(=O)c2cc3cc(NS(C)(=O)=O)ccc3[nH]2)CC1 [Delavirdine, reference compound]
IC50 [1, 6]: 400 nM
IC50 [2, 7]: 9 nM
IC50 [3, 8]: 50000 nM
IC50 [4, 9]: > 100000 nM
IC50 [4, 10]: > 100000 nM

Fc1ccccc1CCNC(=S)Nc1ccc(Br)cn1 [HI-240, reference compound]
IC50 ([1]; H9 cells, read-out: IC50 RT-MDR): 5 nM
IC50 ([2]; human PBMC, p24): < 1 nM
IC50 ([3]; Y181C mutation, read-out: IC50 A17): 200 nM
IC50 ([4]; Y181C plus K103N mutations, read-out: IC50 A17 (second column; A17 variant)): 41000 nM
IC50 [5]: 600 nM

Cc1ccnc2c1NC(=O)c1cccnc1N2C1CC1 [Nevirapine, reference compound]
IC50 [1, 6]: 5000 nM
IC50 [2, 7]: 34 nM
IC50 [3, 8]: > 100000 nM
IC50 [4, 10]: > 100000 nM

C[C@@H](NC(=S)Nc1ccc(Br)cn1)C1CCCCC1 [PHI-509^R, N-[1-(1-(1R)-Cyclohexylethyl)]-N-[2-(5-bromopyridyl)] thiourea]
IC50 [1, 6]: 200 nM
melting point: 176 to 177 °C
IC50 ([2]; human PBMC, p24, listed as PHI-509^S): > 1000 nM
IC50 ([2]; human PBMC, p24): 1 nM
IC50 [3, 8]: 400 nM
IC50 [4, 9]: 10000 nM

CC(NC(=S)Nc1ccc(Cl)cn1)C1CCCCC1 (stereo not shown) [PHI-510^R]
IC50 [1, 6]: 60 nM
IC50 [3, 8]: 70 nM
IC50 [4, 10]: 8200 nM

C[C@@H](NC(=S)Nc1ccc(Br)cn1)c1ccccc1 [PHI-511^R]
IC50 [1, 6]: 5 nM
times more active than delavirdine ([1]; RT-MDR): 80 times
times more active than nevirapine ([1]; RT-MDR): 1,000 times
times more active than trovirdine ([1]; RT-MDR): 4 times
melting point: 170 to 172 °C
IC50 ([2]; human PBMC, p24, listed as PHI-511^S): > 1000 nM
IC50 ([2]; human PBMC, p24): 10 nM
times more active than HI-240 ([3]; A17): 20 times
times more active than delavirdine ([3]; A17): 5,000 times
times more active than nevirapine ([3]; A17): 10,000 times
times more active than trovirdine ([3]; A17): 50 times
IC50 [3, 8]: 10 nM
IC50 [4, 10]: 2700 nM

C[C@@H](NC(=S)Nc1ccc(Cl)cn1)c1ccccc1 [PHI-512^R]
IC50 [1, 6]: 10 nM
melting point: 185 to 187.5 °C
IC50 [2, 7]: 10 nM
IC50 [3, 8]: 200 nM
IC50 [4, 10]: 10200 nM

C[C@@H](NC(=S)Nc1nccs1)C1CCCCC1 [PHI-513^R, N-[1-(1-(1R)-Cyclobexyl)ethyl]-N′-[2-(thiazolyl)]thiourea]
IC50 [1, 6]: 5600 nM
melting point: 118 to 119 °C
IC50 ([2]; human PBMC, p24, listed as PHI-513^S): > 1000 nM
IC50 ([2]; human PBMC, p24): 1 nM
IC50 [3, 8]: 900 nM
IC50 [4, 10]: 5800 nM
IC50 [5]: 13000 nM and > 100000 nM

C[C@H](NC(=S)Nc1ccccn1)C1CCCCC1 [PHI-542]
IC50 [2, 7]: > 1000 nM
IC50 [5]: > 100000 nM

C[C@@H](NC(=S)Nc1ccccn1)C1CCCCC1 [PHI-543]
melting point: 125 to 127 °C
IC50 [2, 7]: > 1000 nM
IC50 [5]: > 100000 nM

S=C(NCCc1ccccn1)Nc1ccc(Br)cn1 [Trovirdine, reference compound]
IC50 [1, 6]: 20 nM
IC50 ([2]; Human immunodeficiency virus 1, PBMC): 7 nM
IC50 [3, 8]: 500 nM
IC50 [4, 9]: > 100000 nM
IC50 [4, 10]: > 100000 nM
